Test results from paper PMC4848510, “Foldamer-mediated manipulation of a pre-amyloid toxin” (Nature Communications, 2016).

Columns and labels:
IAPP = biological target: T1, IAPP (Homo sapiens, UniProt P10997); experiment: LUV-catalysed IAPP fibre formation kinetic assay (ThT fluorescence); type: biochemical; details: 10 μM IAPP, 1:1 IAPP:small molecule, 630 μM LUVs DOPG:DOPC 1:1; ND = no kinetics over time of observation
T1 construct: IAPP is a 37-residue peptide co-packaged with insulin in pancreatic β-cells; purchased Genscript; Elim Biopharmaceuticals
T1 sequence (P10997 34-70 limits assumed): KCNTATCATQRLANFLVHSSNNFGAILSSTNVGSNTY
Procedure: Unless otherwise stated, LUVs used in this work were prepared from a 1:1 mixture of DOPG/DOPC. The lyophilized mixture was hydrated in 100 mM KCl, 50 mM sodium phosphate and pH 7.4 for 20 min. A 20mg ml^−1 solution of lipid in buffer was passed 21 times through a polycarbonate membrane (pore diameter=100 nm). The phospholipid content of the final material was measured using a total phosphorous assay.
(§1) Amyloid reactions were conducted in buffer containing liposome (630 μM lipid) and 20 μM ThT in a black 96-well plate. This was followed by the addition of small molecule dissolved in dimethylsulphoxide (DMSO; final DMSO concentration=0.5%, v/v). Fibre formation was initiated by the addition of IAPP stock solution. The final volume in each well was 200 μl. Kinetics of fibrillation was monitored by ThT fluorescence (excitation 450 nm and emission 485 nm), using a FluoDia T70 fluorescence plate reader (Photon Technology International, Edison, NJ, USA). The data were blank subtracted and renormalized to the maximum intensity of reactions containing only IAPP. Each kinetic trace was fit to a sigmoidal form:
(§2) where I is the fluorescence intensity, t is time, and b, m and τ are dependent fitting variables. All samples were run at least in triplicate and error bars shown in the text represent ±1 s.d.

INS-1 cells = experiment: Rescue of INS-1 cells from IAPP-induced toxicity (CellTiter Blue); details: 13 μM IAPP; for rescue of IAPP-induced toxicity, co-addition: small molecule co-added 1:1, 48 h, n=24
[1] = system: Src and its homologue, Abl; details: cited from earlier work
Text: Dynamic binding modes, such as conformational selection, are often observed in protein:ligand interactions. A recent example is the anti-cancer drug Gleevec[8]. Gleevec binds to structurally identical sites in Src and its homologue, Abl. […] It stands to reason that the internal degrees of freedom of ligands should be similarly exploitable. However, ligand dynamics are viewed unfavourably as a result of entropy loss on binding. The non-covalent and reversible stabili ...

[2] = IAPP fibre formation in solution without LUVs (ThT); type: physicochemical, human; details: 10 μM IAPP, no LUVs, at least triplicate, ±1 s.d.
Procedure: as §1, with “form: […]” for “form:”
as §2
Supplementary Figure 1: Kinetic profiles of IAPP self-assembly. a, Three representative kinetic profiles for a standard reaction of 10 µM IAPP catalysed by the presence of 630 µM LUVs (DOPG:DOPC, 1:1, 100 nm) (inset) A representative sigmoid fit (magenta) used to extract reaction midpoints, t50. b, Representative comparison of the kinetic profiles of (10 µM) IAPP fibrillation in the absence (black) and presence (red) of 630 µM LUVs. […]

Compound	t50 / (t50 IAPP only), inhibition of LUV-catalysed fibre formation (IAPP)	rescue of IAPP-induced toxicity, co-addition (INS-1 cells)	difference in binding affinity between Src and Abl [1]	reaction midpoint t50 of IAPP assembly into fibres in solution [2] [h]	decrease of INS-1 viability (INS-1 cells; 48 h incubation) [%]
O=C(O[C@@H]1Cc2c(O)cc(O)cc2O[C@@H]1c1cc(O)c(O)c(O)c1)c1cc(O)c(O)c(O)c1 [EGCG, epigallocatechin gallate]	no detectable effect	ineffective in rescuing toxicity			
Cc1ccc(NC(=O)c2ccc(CN3CCN(C)CC3)cc2)cc1Nc1nccc(-c2cccnc2)n1 [Gleevec]			> 1,000 fold		
CC[C@H](C)[C@H](NC(=O)[C@H](C)NC(=O)CNC(=O)[C@H](Cc1ccccc1)NC(=O)[C@H](CC(N)=O)NC(=O)[C@H](CC(N)=O)NC(=O)[C@H](CO)NC(=O)[C@H](CO)NC(=O)[C@H](Cc1c[nH]cn1)NC(=O)[C@@H](NC(=O)[C@H](CC(C)C)NC(=O)[C@H](Cc1ccccc1)NC(=O)[C@H](CC(N)=O)NC(=O)[C@H](C)NC(=O)[C@H](CC(C)C)NC(=O)[C@H](CCCNC(=N)N)NC(=O)[C@H](CCC(N)=O)NC(=O)[C@@H](NC(=O)[C@H](C)NC(=O)[C@@H]1CSSC[C@H](NC(=O)[C@@H](N)CCCCN)C(=O)N[C@@H](CC(N)=O)C(=O)N[C@@H]([C@@H](C)O)C(=O)N[C@@H](C)C(=O)N[C@@H]([C@@H](C)O)C(=O)N1)[C@@H](C)O)C(C)C)C(=O)N[C@@H](CC(C)C)C(=O)N[C@@H](CO)C(=O)N[C@@H](CO)C(=O)N[C@H](C(=O)N[C@@H](CC(N)=O)C(=O)N[C@H](C(=O)NCC(=O)N[C@@H](CO)C(=O)N[C@@H](CC(N)=O)C(=O)N[C@H](C(=O)N[C@@H](Cc1ccc(O)cc1)C(N)=O)[C@@H](C)O)C(C)C)[C@@H](C)O [IAPP]				18 ± 1.4	78±8

Continued, in another order:

t50 / (t50 IAPP only), inhibition of LUV-catalysed fibre formation (IAPP)	Compound	rescue of IAPP-induced toxicity, co-addition (INS-1 cells)	difference in binding affinity between Src and Abl [1]	reaction midpoint t50 of IAPP assembly into fibres in solution [2] [h]	decrease of INS-1 viability (INS-1 cells; 48 h incubation) [%]
no detectable effect	Oc1ccc(/C=C/c2cc(O)cc(O)c2)cc1 [resveratrol]	ineffective in rescuing toxicity			
no detectable effect	acid fuchsin	ineffective in rescuing toxicity			
